The source of these data is US20260055081A1, “Metal Chelator Compounds, Coordination Complexes, and Methods of Preparation and Use Thereof” (University of Puerto Rico, priority 2022, published 2026).

Structures can show the parent of a compound that is named as a salt.

Data set [1] relates to Jurkat Leukemia cell line. The experiment in a line: Jurkat cell viability (MTT assay). As to conditions: Homo sapiens; Jurkat cell line, 72 h, MTT. In kind it is cell-based. Here is the method:
Jurkat cell culturing and cell viability studies. Jurkat cells are nonadherent cells, and they were cultured in an RPMI-1640 media (supplemented with 10% FBS (v/v) and 1% antibiotic solution (v/v) of penicillin/streptomycin) in non-tissue-culture treated 25 mL flasks according to the known protocol provided by the supplier ATCC. The cell passaging was done at 70% confluency by taking 3 mL of cells and diluting to 25 mL of fresh media. The cells were incubated at 37° C. in 5% CO2 atmosphere.
Jurkat cytotoxicity of DefNEtTrp (6), Def (5), NEtTrp (4), Trp, and 1:1 combinations of 5 with 4 and 5 with Trp was determined by the colorimetric 3-(4,5-dimethylthiazol-2-yl)-2,5-diphenyltetrazolium bromide (MTT) assay. Incubation conditions were the same in all the steps. Cells in 80-95% confluence (grown in standard circular tissue culture dishes, BD Falcon) were separately seeded into 96-well plates using phenol red free RPMI-1640 media (containing 10% FBS and 1% streptomycin/penicillin) in a volume of 50 μL at a concentration of 5.0×10^5 cells/mL. Following this procedure, the Jurkat cells were treated immediately. Stock solution of the compounds were first prepared in DMF at 5 mM and stored at 4° C. for up to 30 days. The stock solution was diluted to specific concentrations using 1×PBS (0.2-20 μM) while DMF was maintained at 1% (v/v). 50 μL of diluted solutions were added in all cell containing wells with at least six replicates per concentration (n=6). The final percentage (v/v) of DMF was 0.5%. The cells were also co-treated with 5 with 4 and 5 with Trp in a 1:1 mole equivalent ratio over the same concentration range but as a combined concentration of both compounds. Control wells in the plates consisted of one lane of cells treated with media alone including 0.5% DMF (v/v) as the measure of 100% viable cell growth in the media. Another control lane consisted of no cells with media including 0.5% DMF (v/v) as a measure of the background with no viable cells. The plates were incubated for 72 h. At 4 h before completion of the incubation time, 25 μL of MTT solution (sterile filtered 5 mg/mL solution, dissolved in 1×PBS buffer) was added to each well. During addition of the MTT solution, the plates were protected from light. After completion a 50 μL portion of 4% (w/v) SDS solution (sterile filtered, dissolved in Tris buffer 1M, pH=10) was added to each well and incubated to solubilize formazan crystals after MTT cell labeling. The absorbance of each well was measured at 570 nm (absorbance of the formazan product at pH >10.0) and 800 nm (as a background correction) using a Tecan plate reader. The absorbance of all wells was compared to the absorbance of the untreated cells with the MTT set as the 100% viable cell standard and the absorbance of the no cell control set as the 0% viable cell standard. Nonlinear regression in GraphPad Prism 8 was utilized to fit the growth curve over the various drug concentrations to determine the half-maximal inhibitory concentration (IC50). All cell viability experiments, including non-Jurkat cells, were repeated at least once for biological duplicates. To confirm cell death at the higher concentration dosages of the compounds and combinations, dead cells were blue stained with trypan blue and visually inspected under the microscope.
Background: Tetrazolium assays rely on reduction of a dye to a coloured formazan, in cell work by metabolically active cells.

Data set [2] relates to red blood cells. As to the kind of experiment: CO-ADD hemolysis assay. In kind it is cell-based, human. As to conditions: for hemolysis behavior relative to DefNEtTrp (minor hemolysis): human red blood cells. Here is the method:
CO-ADD hemolysis assay. Dry compounds ranging from 1-2 mg were delivered to the CO-ADD. The compounds were solubilized to a stock concentration of 10 mg/mL in DMSO. Samples were serially diluted 1:2 fold in water to final testing concentrations of […] while keeping the final DMSO concentration to a maximum of 0.32% (v/v). Each sample concentration was prepared in polypropylene 384-well plates (Corning 3657) for hemolysis assays, all in two duplicate plates (n=2). All sample preparation was conducted using liquid handling robots. Human whole blood (Australian Red Cross) was washed three times with three volumes of 0.9% NaCl (w/v) and resuspended in a concentration of […], determined by manual cell count in a Neubauer hemocytometer. Washed cells were added to the compound-containing plates for a final volume of 50 μL. After a 10 min shake on a plate shaker the plates were then incubated for 1 h at 37° C. After incubation, the plates were centrifuged at 1000 g for 10 min to pellet cells and debris, 25 μL of the supernatant was then transferred to reading plates (384 well, polystyrene plated (PS), Corning CLS3680), with hemolysis determined by measuring the supernatant absorbance at […] (OD405) using a Tecan M1000 Pro monochromator plate reader. HC10 and HC50 (concentration at 10% and 50% hemolysis, respectively) were calculated by curve fitting the inhibition values vs. log(concentration) using a sigmoidal dose-response function with variable fitting values for the top, bottom, and slope. The maximal percentage of hemolysis is reported as Dmax. Hemolysis samples are classified by HC10≤32 μg/mL. […] Melittin was used in 8 concentrations in 2-fold serial dilutions with 50 µg/mL being the highest concentration.

Data set [3] relates to Jurkat cells. The experiment in a line: Apoptosis mechanistic cell viability study (Q-VD-OPh). In kind it is cell-based, human. The settings on record: 10 μM Q-VD-OPh pretreatment, 2 μM cisplatin, 72 h. The protocol: Apoptosis mechanistic cell viability study. Jurkat cells were seeded into 96-well plates, as indicated in the MTT assay described above. The cells were treated with 10 μM of the apoptosis inhibitor Q-VD-OPh (Q-V-O). Another group of cells were treated with media alone. After 1 h incubation, half of the cells supplemented with Q-V-O were treated with 2 μM DefNEtTrp or 2 μM cisplatin, as positive control, while the other half was treated with media alone. The final percentage of DMF was maintained at 0.5% (v/v). The MTT assay was performed with these samples (n=6). A student t-test was performed to evaluate the difference in the viability of cells treated with DefNEtTrp or cisplatin and supplemented with and without Q-V-O.

In the case of `O=C(O)c1ccc(-n2nc(-c3ccccc3O)nc2-c2ccccc2O)cc1` [Def, deferasirox, reference compound], the IC50 in data set [1] was 2600 ± 150 nM. Moreover, in data set [2], the “hemolysis behavior relative to DefNEtTrp (minor hemolysis)” value (from here on “hemolysis behavior relative to DefNEtTrp”) is “comparable”.

As for `CC[C@H](C)[C@H](NC(=O)CN)C(=O)NCC(=O)N[C@@H](C)C(=O)N[C@H](C(=O)N[C@@H](CC(C)C)C(=O)N[C@@H](CCCCN)C(=O)N[C@H](C(=O)N[C@@H](CC(C)C)C(=O)N[C@H](C(=O)N[C@H](C(=O)NCC(=O)N[C@@H](CC(C)C)C(=O)N1CCC[C@H]1C(=O)N[C@@H](C)C(=O)N[C@@H](CC(C)C)C(=O)N[C@H](C(=O)N[C@@H](CO)C(=O)N[C@@H](Cc1c[nH]c2ccccc12)C(=O)N[C@H](C(=O)N[C@@H](CCCCN)C(=O)N[C@@H](CCCNC(=N)N)C(=O)N[C@@H](CCCCN)C(=O)N[C@@H](CCCNC(=N)N)C(=O)N[C@@H](CCC(N)=O)C(=O)N[C@@H](CCC(N)=O)C(N)=O)[C@@H](C)CC)[C@@H](C)CC)[C@@H](C)O)[C@@H](C)O)C(C)C)C(C)C` [Melittin], the “HC10 and HC50 values” in data set [2] (positive hemolytic control) is reported as “within the expected range”.

As for `NCCNC(=S)N/N=C/c1ncccc1N` [NEtTrp, nitrogen ethyl triapine dihydrochloride], in data set [1], the IC50 came out at 5900 ± 290 nM. The “hemolysis behavior relative to DefNEtTrp” value in data set [2] was “comparable”.

With `NC(=S)NN=Cc1ncccc1N` [Trp, 3-aminopyridine-2-carboxaldehyde-thiosemicarbazone, reference compound], the IC50 in data set [1] is 1100 ± 40 nM. The “hemolysis behavior relative to DefNEtTrp” value in data set [2] is recorded as “comparable”.

As to `N.N.[Cl][Pt][Cl]` [cisplatin, reference compound], the “antiproliferative activity when cells are pretreated with Q-VD-OPh” value in data set [3] is given as “less antiproliferative activity”.

The term IC50 denotes the concentration needed to halve the response being measured.
